# Patent US10597378B2 (priority 2017, dated 2020)
# Key:
# [1] = Charcoal meal test (gastrointestinal transit); conditions: B6, mouse, in vivo, sc
# Protocol: (§1) B6 mice were fasted for at least 16 h before the study with free access to water. In a charcoal meal test, various doses of drugs were administered to the mice 30 min prior to the administration of an aqueous activated charcoal suspension (10% activated charcoal+5% gum Arabic; 0.3 mL). After 30 min, the mice were euthanized by intraperitoneal administration of a ketamine/xylazine cocktail (Sigma) followed by cervical dislocation and the total length of migration of the charcoal meal was measured from the pylorus to the ileocecal junction of the small intestine. The length of the intestine from pylorus to the caecum and the distance traveled by the charcoal were measured. The migration index was expressed as percentage of the distance traveled by the peristaltic charcoal meal relative to the total length of the small intestine, calculated according to the following formula. % of Gastrointestinal transit=Distance Travelled by Charcoal Meal/Full Length of the Small Intestine×100%
# (§2) Gastrointestinal propulsion was calculated as the percentage of the distance travelled by the charcoal meal relative to the total length of the small intestine, to control for individual variations. The percentage inhibition relative to the control was also calculated as: % Gastrointestinal Inhibition (GI)=(Control group−Drug-treated group)/Control group×100% […]
# [2] = test system: B6 mice; assay: Charcoal meal test (gastrointestinal transit); conditions: equianalgesic doses
# Protocol: as §1, §2
# [3] = test system: oxaliplatin-injected B6 mice; assay: Oxaliplatin-induced neuropathic pain, mechanical allodynia (Von Frey test); format: in vivo, mouse; conditions: PID 3, 30 min after treatment, equi-antinociceptive doses
# Protocol: (§3) To induce neuropathic pain, each B6 mouse was intraperitoneally injected with either oxaliplatin (3.0 mg/kg), or vehicle (saline) after habituation to the test environment and baseline measurements of pain sensitivity. […] To induce cancer pain, each B6 mouse was injected with either 20 μL phosphate-buffered saline or cells (6×10^5 cells/20 μL phosphate-buffered saline) in the footpad of the right hind paw under isoflurane anesthesia on post-inoculation day 0. On post-inoculation day 19, i.e., the test day, mice were placed on a mesh floor with 5×5 mm holes, covered with a cup to prevent visual stimulation, and allowed to adapt for 1 h prior to testing. […] The tests were initiated with 0.5 g force. Briefly, whenever a withdrawal response occurred, the next weaker von Frey filament was applied. On the other hand, whenever no withdrawal response occurred, the next stronger filament was applied. Mechanical allodynia was defined as changes in the amount of pressure to induce the hind paw withdrawal.
# This treatment paradigm was followed to produce neuropathic pain mice.
# [4] = test system: melanoma cell-implanted B6 mice; assay: Cancer-induced pain (B16-F1 melanoma), mechanical allodynia (Von Frey test); format: in vivo, mouse
# Protocol: as §3, with “On post-inoculation day 19, i.e., the test day, mice were placed on a mesh floor with 5×5 mm holes, covered with a cup to prevent visual stimulation, and allowed to adapt for 1 h prior to testing.” left out
# The cold allodynia was tested using acetone drop test and mechanical allodynia was measured using the Von Frey test to examine the antinociceptive effects of each drug treatment.
compound,measurement,setting,value
"CN1CCc2ccccc2C1CNC(=O)c1ccc(Cl)c(Cl)c1 (centres unmarked) [Compound 67, 3,4-Dichloro-N-[(2-methyl-1,2,3,4-tetrahydro-1-isoquinolinyl)methyl]benzamide]",ED50 at 60 min,[1],1.6 mg/kg
same,gastrointestinal dysfunction,[2],less gastrointestinal dysfunction than morphine
same,antinociceptive effect in oxaliplatin-induced sensory allodynia,[3],comparable to that of morphine
same,antinociceptive effect after twice daily injection,[4]; 30 min on PID 21 and PID 23,more than that of morphine
same,withdrawal threshold,"[4]; PID19, 30 min after treatment, equi-antinociceptive doses",greater than that of morphine
